Source: article PMC10343225, “Investigating the Vital Role of the Identified Abietic Acid from Helianthus annuus L. Calathide Extract against Hyperuricemia via Human Embryonic Kidney 293T Cell Model” (Molecules, 2023)

Molecular target: T1, xanthine oxidase (XO) (Bos taurus, UniProt P80457)
T1 construct: gene XDH
Experiment: spectrophotometric xanthine oxidase assay, uric acid formation at […] nm (XO from Roche)
Type: biochemical

T1 sequence (P80457 2-1332): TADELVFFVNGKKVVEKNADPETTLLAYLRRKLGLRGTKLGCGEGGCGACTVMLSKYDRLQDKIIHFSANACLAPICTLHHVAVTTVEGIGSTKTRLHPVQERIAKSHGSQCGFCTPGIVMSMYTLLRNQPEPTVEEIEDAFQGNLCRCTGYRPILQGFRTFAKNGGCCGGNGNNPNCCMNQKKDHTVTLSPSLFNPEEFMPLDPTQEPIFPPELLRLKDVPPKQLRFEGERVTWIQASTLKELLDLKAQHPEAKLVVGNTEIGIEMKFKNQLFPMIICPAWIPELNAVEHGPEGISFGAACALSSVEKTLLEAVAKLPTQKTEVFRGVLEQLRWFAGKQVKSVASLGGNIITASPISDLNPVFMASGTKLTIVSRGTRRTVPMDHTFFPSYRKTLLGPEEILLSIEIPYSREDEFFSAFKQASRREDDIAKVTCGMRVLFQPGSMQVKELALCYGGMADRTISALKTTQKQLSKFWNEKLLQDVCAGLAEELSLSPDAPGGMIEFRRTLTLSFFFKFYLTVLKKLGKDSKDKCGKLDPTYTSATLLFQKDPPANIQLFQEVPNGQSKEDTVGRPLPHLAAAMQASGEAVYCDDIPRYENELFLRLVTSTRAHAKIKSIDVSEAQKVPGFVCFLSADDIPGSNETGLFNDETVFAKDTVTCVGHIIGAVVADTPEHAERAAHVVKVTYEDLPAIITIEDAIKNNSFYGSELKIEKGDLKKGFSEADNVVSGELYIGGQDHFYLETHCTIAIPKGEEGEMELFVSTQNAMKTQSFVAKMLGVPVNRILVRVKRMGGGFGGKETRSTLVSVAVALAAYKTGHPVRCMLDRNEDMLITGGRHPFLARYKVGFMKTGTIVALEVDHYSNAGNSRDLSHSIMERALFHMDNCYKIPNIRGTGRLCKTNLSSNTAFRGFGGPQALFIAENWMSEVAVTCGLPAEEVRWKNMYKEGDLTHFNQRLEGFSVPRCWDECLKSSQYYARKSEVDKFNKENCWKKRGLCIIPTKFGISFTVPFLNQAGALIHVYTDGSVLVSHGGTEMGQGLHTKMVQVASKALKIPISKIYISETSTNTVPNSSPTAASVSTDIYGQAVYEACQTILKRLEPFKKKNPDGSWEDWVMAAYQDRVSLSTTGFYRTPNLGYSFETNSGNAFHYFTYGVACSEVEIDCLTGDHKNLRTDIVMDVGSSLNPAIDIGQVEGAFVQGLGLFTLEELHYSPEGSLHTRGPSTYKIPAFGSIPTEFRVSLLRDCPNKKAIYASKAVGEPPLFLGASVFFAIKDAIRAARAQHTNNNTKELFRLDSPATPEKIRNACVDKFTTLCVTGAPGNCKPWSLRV

CC(C)C1=CC2=CC[C@@H]3[C@](C)(CCC[C@@]3(C)C(=O)O)[C@H]2CC1 [AA, abietic acid]
IC50: 10.6 µM
